Results taken from paper PMC8991960, “A Bivalent Activatable Fluorescent Probe for Screening and Intravital Imaging of Chemotherapy‐Induced Cancer Cell Death” (Angewandte Chemie (International Ed. in English), 2021).

Tests used:
[1] = test system: 8 cancer cell lines; experiment: Classification of drugs by Apotracker Red (apoptosis) and CellTrace Violet (proliferation) staining; assay type: cell-based; conditions: 24 h treatment; for Drug group by Apotracker Red (apoptosis) and CV (proliferation) staining: 8 cell lines, single-dose screen; for Effect on cell proliferation (CellTrace Violet): CellTrace Violet 1 µM, Figure S8
Method: To corroborate the versatility of Apotracker Red, we built a screening platform including a total of 8 cancer cell lines of variable origin and pathogenesis: breast (MCF7, MDA‐MB231 and MMTV‐PyMT (mouse mammary tumour virus‐polyoma middle tumour‐antigen)[23]), lung (A549), prostate (PC3 and LnCap), blood cells (Jurkat) and colon (HT29). All cell lines were cultured under standard conditions and seeded with the fluorescent proliferation marker CellTrace^TM Violet (CV) in 96‐well plates (10–20×10^3 cells/well) for high‐throughput flow cytometry. After drug treatment (i.e., drug addition plus 24 h incubation), Apotracker Red was incubated for 10 min and fluorescence readings were directly acquired without any additional processing steps (Figure 3 a). […] Using this platform, we tested a collection of FDA‐approved drugs in all cancer cell lines and compared their ability to induce apoptosis using Apotracker Red as the reporter. Specifically, we included DNA alkylation agents (e.g., cyclophosphamide, cisplatin, 5‐fluorouracil, gemcitabine, temozolomide), proteasomal and mitotic inhibitors (e.g., bortezomib, docetaxel, paclitaxel) and antagonists of specific proteins (e.g., dexamethasone, tamoxifen; Figure 3 b).
(§1) First, all drugs were tested in the 8 different cell lines to determine the percentages of Apotracker Red‐stained apoptotic cells compared to no treatment (Figure 3 c; Figure S8). […] All 5 drugs were tested at multiple concentrations (from 1 to 100 μM) and with incubation times up to 48 h to examine whether drugs could block cell proliferation at late stages (Figures S9–S13).
Figure S8. Heatmap of relative inhibition of cell proliferation (as indicated by staining of CellTraceTM Violet) after treatment of cancer cell lines with different drugs. Data presented as an average of 3 independent experiments. Cells were stained on day 0 with CellTraceTM Violet (1 µM) and mean fluorescence intensities were determined on the 5L LSR after 24 h of treatment with the different drugs.
(1 picture or pasted object on this page, not shown here) […]
(§2) Cell culture. MCF-7, A549, LnCap, MDA-MB-231, Jurkat T cells and PC3 cells were obtained from American Type Culture Collection (ATCC). HT29 cells were purchased from Merck (S i g m a Aldrich, UK). Mouse Mammary Tumour Virus –Polyoma Middle T antigen (MMTV -PyMT) cells were provided by the lab of Mikala Egeblad (CSHL, US). MMTV-PyMT, MCF-7, LnCap, MDA-MB-231 and Jurkat T cells were cultured in Roswell Park Memorial Institute (RPMI) 1640 Medium supplemented with 10% fetal bovine serum (FBS) , 100 U mL-1 penicillin and 0.1 mg mL-1 streptomycin. A549 and PC3 cells were cultured in Dublecco’s modified Eagle’s medium (DMEM) supplemented with 10% fetal bovine serum (FBS), 100 U mL-1 penicillin and 0.1 mg […]
(§3) Flow cytometry drug screen.

[2] = test system: MDA-MB-231 cells; experiment: Dose-dependency study with Apotracker Red; assay type: cell-based, human; conditions: 1 to 100 µM, 48 h, Apotracker Red 150 nM
Method: as §1
Edinburgh. Human peripheral blood neutrophils were isolated as previously described.[3] Briefly, whole blood was drawn into tubes containing anti -coagulant 3.6% sodium citrate (final concentration: 0.4% (w/v)) and centrifuged at 350 g for 20 min at r.t. with lowest acceleration and no brake. Platelet-rich plasma was rem oved, and leukocytes separated from erythrocytes by 0.6% dextran sedimentation in saline for 30 min at r.t. The upper layer was further fractionated using an isotonic discontinuous Percoll density gradient. Neutrophils were harvested from the 63% and 72.9% interface and cultured in Iscove’s Modified Dulbecco’s Medium (IMDM, Gibco) in 5% h um an A B se rum fo r 1 8 h at 37°C, 5% CO2 to in du ce spontaneous […]
as §2, §3

[3] = test system: breast cancer cells (MMTV-PyMT, MDA-MB231, MCF7); experiment: Dose-dependency study with Apotracker Red and CellTrace Violet; assay type: cell-based, mouse and human; conditions: 1 to 100 µM, 48 h, Apotracker Red 150 nM; 3 independent experiments
Method: as §1, with “S8). […] From this screen, we decided to select 5 drugs with potent pro‐apoptotic response in breast cancer, the most diagnosed cancer worldwide.[25] […] From group 2, we selected cyclophosphamide, tamoxifen, and 5‐fluorouracil as pro‐apoptotic molecules.” for “S8).”
Figure 4 Apotracker Red detects dose‐dependent chemotherapeutic‐induced apoptosis in mouse and human breast cancer cell lines. Cells were plated with 1 μM CV, treated with increasing concentrations (0, 1, 3, 10, 30 and 100 μM) of selected drugs for 48 h, and stained with Apotracker Red (150 nM) before data acquisition. Drugs: tamoxifen (beige), cisplatin (black), 5‐fluorouracil (green), gemcitabine (pink) and cyclophosphamide (red). Data presented as mean±SEM of 3 independent experiments.
Figure S9. Flow cytometry analysis of cisplatin in different breast cancer cell lines.
Representative flow cytometric plots (from three independent experiments) of MMTV-PyMT cells (a), MDA-MB231 cells (b) and MCF7 cells (c) after treatment with increasing concentrations of cisplatin for 48 h. Cells were stained on day 0 with CellTraceTM Violet (1 µ M) and with Apotracker Red (150 nM) before data acquisition.
(1 picture or pasted object on this page, not shown here)
Edinburgh. Human peripheral blood neutrophils were isolated as previously described.[3] […]
were centrifuged (300 g, 5 min, r.t.), washed once with PBS before addition of 0.05% Trypsin, 0.02% ethylenediaminetetraacetic acid (EDTA) in Hank’s balanced salt solution (HBSS) and incubation at 37°C for 5 min. […] Histograms and mean fluorescence intensities of […]

[4] = test system: apoptotic cells (primary human neutrophils, Jurkat T cells); experiment: Divalent cation-independent staining of apoptotic cells; assay type: cell-based; conditions: 2.5 mM EDTA; Apotracker Red 150 nM, Annexin V-AF647 25 nM

Cn1nnc2c(C(N)=O)ncn2c1=O [temozolomide]
Drug group by Apotracker Red (apoptosis) and CV (proliferation) staining [1]: inhibited cell proliferation but showed little or no induction of apoptosis

O=c1[nH]cc(F)c(=O)[nH]1 [5-fluorouracil]
Apotracker Red staining in MDA-MB-231 cells, dose-dependency study [2]: weaker Apotracker Red‐staining | Drug group by Apotracker Red (apoptosis) and CV (proliferation) staining [1]: induced apoptosis with little reduction of cell proliferation

CC(=O)O[C@@]12CO[C@@H]1C[C@H](O)[C@@]1(C)C(=O)[C@H](O)C3=C(C)[C@@H](OC(=O)[C@H](O)[C@@H](NC(=O)OC(C)(C)C)c4ccccc4)C[C@@](O)([C@@H](OC(=O)c4ccccc4)[C@H]21)C3(C)C [docetaxel]
Drug group by Apotracker Red (apoptosis) and CV (proliferation) staining [1]: inhibited cell proliferation but showed little or no induction of apoptosis

CC/C(=C(\c1ccccc1)c1ccc(OCCN(C)C)cc1)c1ccccc1 [tamoxifen]
Drug group by Apotracker Red (apoptosis) and CV (proliferation) staining [1]: induced apoptosis with little reduction of cell proliferation | Percentages of Apotracker Red staining, dose-dependency study [3]: highest percentages of Apotracker Red staining across all breast cancer cells

CC(C)C[C@H](NC(=O)[C@H](Cc1ccccc1)NC(=O)c1cnccn1)B(O)O [bortezomib]
Drug group by Apotracker Red (apoptosis) and CV (proliferation) staining [1]: induced apoptosis with little reduction of cell proliferation | Effect on cell proliferation (CellTrace Violet) [1]: very minor effects on cell proliferation

O=P1(N(CCCl)CCCl)NCCCO1 (stereo not drawn) [cyclophosphamide]
Apotracker Red staining in MDA-MB-231 cells, dose-dependency study [2]: weaker Apotracker Red‐staining

Nc1ccn([C@@H]2O[C@H](CO)[C@@H](O)C2(F)F)c(=O)n1 [gemcitabine]
Apotracker Red staining in MDA-MB-231 cells, dose-dependency study [2]: weaker Apotracker Red‐staining | Drug group by Apotracker Red (apoptosis) and CV (proliferation) staining [1]: induced apoptosis and decreased cell proliferation

C[C@@H]1C[C@H]2[C@@H]3CCC4=CC(=O)C=C[C@]4(C)[C@@]3(F)[C@@H](O)C[C@]2(C)[C@@]1(O)C(=O)CO [dexamethasone]
Drug group by Apotracker Red (apoptosis) and CV (proliferation) staining [1]: had no impact on proliferation or apoptosis

CC(=O)O[C@H]1C(=O)[C@@]2(C)[C@H]([C@H](OC(=O)c3ccccc3)[C@]3(O)C[C@H](OC(=O)[C@H](O)[C@@H](NC(=O)c4ccccc4)c4ccccc4)C(C)=C1C3(C)C)[C@]1(OC(C)=O)CO[C@@H]1C[C@@H]2O [paclitaxel]
Drug group by Apotracker Red (apoptosis) and CV (proliferation) staining [1]: induced apoptosis with little reduction of cell proliferation | Effect on cell proliferation (CellTrace Violet) [1]: very minor effects on cell proliferation

B1: Annexin V‐AF647: a 36 kDa protein marker of PtdSer in the presence of Ca2+ ions (protein, UniProt P08758 2-320, looked up)
Annexin A5: AQVLRGTVTDFPGFDERADAETLRKAMKGLGTDEESILTLLTSRSNAQRQEISAAFKTLFGRDLLDDLKSELTGKFEKLIVALMKPSRLYDAYELKHALKGAGTNEKVLTEIIASRTPEELRAIKQVYEEEYGSSLEDDVVGDTSGYYQRMLVVLLQANRDPDAGIDEAQVEQDAQALFQAGELKWGTDEEKFITIFGTRSVSHLRKVFDKYMTISGFQIEETIDRETSGNLEQLLLAVVKSIRSIPAYLAETLYYAMKGAGTDDHTLIRVMVSRSEIDLFNIRKEFRKNFATSLYSMIKGDTSGDYKKALLLLCGEDD
modifications: Alexa Fluor 647 label
notes: a 36 kDa protein marker of PtdSer in the presence of Ca2+ ions
Staining of apoptotic cells after chelation of divalent cations [4]: failed to bind
